# The source made the active and inactive calls.
# How the values were obtained:
# [1] = molecular target: Type-1 angiotensin II receptor (Homo sapiens, UniProt P30556); experiment: antagonism of angiotensin II type 1 receptor – cell-based, uHTS hits, selectivity assay for APJ receptor antagonist project, dose response (AID 463214); type: functional;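 further: antagonist potency against angiotensin II stimulated AT1 response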
# [2] = molecular target: Beta-galactosidase (Escherichia coli, UniProt Q8VNN2); experiment: PubChem AID 485352; type: functional
# [3] = HPDE-C7 pancreatic duct cell viability loss – fluorescence, HTS (AID 430); type: functional, cell-based; details: Homo sapiens
# [4] = system: Vero; experiment: mammalian cell viability reduction – secondary assay, cytotoxicity control for West Nile virus antiviral project, dose response (AID 1650); type: functional; details: Chlorocebus sabaeus
# [5] = system: HT-1080; experiment: HT1080 cell viability loss – fluorescence readout (AID 620); type: functional, cell-based; details: Homo sapiens
# [6] = system: Vero; experiment: viability of Vero cells under compound – cytotoxicity control for flavivirus capping enzyme inhibitors (AID 588742); type: functional; details: Chlorocebus sabaeus
# [7] = viability loss of HPDE-C7K cells – cell-based, fluorescence, HTS, primary screen (AID 431); type: functional; details: Homo sapiens
# [8] = system: CHO; experiment: CHO cell viability loss, potency – luminescence, cytotoxicity control for TLR9-MyD88 binding inhibitor project, dose response (AID 588339); type: functional, cell-based, hamster; details: Cricetulus griseus;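 further: CHO cells stably coexpressing TLR9 and MyD88 fusions from primary screen; compound exposure lasted 48 hours before viability readout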
# [9] = system: Streptococcus; experiment: GAS UMAA2166 growth inhibition – luminescence, BacTiterGlo, counter-screen for streptokinase expression inhibitor project, dose response (AID 1915); type: functional, organism-based;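 further: potency for reduction of bacterial viability or growth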
# [10] = molecular target: T1, Replicative DNA helicase DnaB (Mycobacterium tuberculosis, UniProt P9WMR3); experiment: DnaB intein splicing inhibitors, dose response, biochemical, cell-free fluorescence (AID 449749); type: functional
# T1 sequence (P9WMR3 whole entry): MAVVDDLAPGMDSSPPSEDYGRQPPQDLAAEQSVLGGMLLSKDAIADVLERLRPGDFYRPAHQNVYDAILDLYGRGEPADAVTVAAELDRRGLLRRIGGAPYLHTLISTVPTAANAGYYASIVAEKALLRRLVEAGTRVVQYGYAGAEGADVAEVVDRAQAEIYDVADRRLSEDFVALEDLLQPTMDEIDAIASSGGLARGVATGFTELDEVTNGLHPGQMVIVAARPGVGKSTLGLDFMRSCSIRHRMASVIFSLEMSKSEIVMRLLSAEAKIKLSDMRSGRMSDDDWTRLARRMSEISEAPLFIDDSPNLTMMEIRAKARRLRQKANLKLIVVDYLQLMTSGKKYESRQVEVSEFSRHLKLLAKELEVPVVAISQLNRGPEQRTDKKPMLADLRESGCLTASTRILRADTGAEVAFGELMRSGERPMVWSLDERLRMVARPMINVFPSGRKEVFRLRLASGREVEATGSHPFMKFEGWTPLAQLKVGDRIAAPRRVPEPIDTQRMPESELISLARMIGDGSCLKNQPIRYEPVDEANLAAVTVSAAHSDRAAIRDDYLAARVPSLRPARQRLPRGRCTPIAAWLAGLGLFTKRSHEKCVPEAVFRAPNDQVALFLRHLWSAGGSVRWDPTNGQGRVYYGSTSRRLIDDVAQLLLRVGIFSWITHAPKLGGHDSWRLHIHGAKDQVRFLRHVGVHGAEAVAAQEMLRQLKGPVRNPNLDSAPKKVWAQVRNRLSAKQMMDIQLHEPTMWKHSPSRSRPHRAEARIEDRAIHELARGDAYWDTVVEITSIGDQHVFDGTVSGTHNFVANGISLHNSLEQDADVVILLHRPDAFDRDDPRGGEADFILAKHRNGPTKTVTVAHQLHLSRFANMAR
# [11] = molecular target: T2, Protein RecA (Mycobacterium tuberculosis, UniProt P9WHJ3); experiment: Fluorescence Cell-Free Homogeneous Dose Retest to Identify Inhibitors of RecA-Intein Splicing Activity. [Related pubchem assays (depositor defined):AID2097, AID2223, AID489010, AID492950]; type: functional
# T2 sequence (P9WHJ3 whole entry): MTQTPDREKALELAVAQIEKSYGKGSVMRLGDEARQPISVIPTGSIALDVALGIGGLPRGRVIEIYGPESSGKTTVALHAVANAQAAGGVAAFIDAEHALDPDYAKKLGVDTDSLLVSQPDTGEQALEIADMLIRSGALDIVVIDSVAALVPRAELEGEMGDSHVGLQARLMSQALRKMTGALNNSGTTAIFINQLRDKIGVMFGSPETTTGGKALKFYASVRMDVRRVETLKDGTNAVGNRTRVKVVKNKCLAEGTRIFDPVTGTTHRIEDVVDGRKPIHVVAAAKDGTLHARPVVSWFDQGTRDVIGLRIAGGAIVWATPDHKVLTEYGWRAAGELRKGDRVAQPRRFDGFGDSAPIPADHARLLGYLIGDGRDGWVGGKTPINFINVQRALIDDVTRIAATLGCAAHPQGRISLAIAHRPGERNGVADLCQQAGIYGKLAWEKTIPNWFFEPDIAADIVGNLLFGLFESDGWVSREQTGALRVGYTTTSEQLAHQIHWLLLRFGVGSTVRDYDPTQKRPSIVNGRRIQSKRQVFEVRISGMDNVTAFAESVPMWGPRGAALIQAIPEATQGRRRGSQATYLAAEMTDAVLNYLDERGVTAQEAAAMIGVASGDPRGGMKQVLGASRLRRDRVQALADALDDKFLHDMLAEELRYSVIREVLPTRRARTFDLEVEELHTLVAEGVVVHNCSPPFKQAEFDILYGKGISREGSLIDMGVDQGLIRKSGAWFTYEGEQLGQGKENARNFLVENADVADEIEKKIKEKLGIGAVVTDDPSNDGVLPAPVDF
# [12] = Luminescence Cell-Based Dose Retest to Confirm Inhibitors of Cancer Stem Cells. [Related pubchem assays (depositor defined):AID2717, AID2721]; type: functional; details: Homo sapiens
# [13] = molecular target: ATP-binding cassette sub-family B member 6 (Homo sapiens, UniProt Q9NP58); experiment: ABCB6 transporter inhibitors, porphyrin accumulation, dose response, flow cytometry, K562-ABCB6 cells, cherry pick 02 (AID 624487); type: functional; details: read-out: EC50_MICROM
# [14] = molecular target: T3, Streptokinase A (Streptococcus pyogenes serotype M1, UniProt P10520); experiment: viability-normalized secreted streptokinase activity reduction – plasminogen activation absorbance, OD405, dose response (AID 1914); type: functional, Streptococcus pyogenes M1 GAS;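 further: secreted streptokinase activity via plasminogen activation per viability signal from cell pellet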
# T3 sequence (P10520 whole entry): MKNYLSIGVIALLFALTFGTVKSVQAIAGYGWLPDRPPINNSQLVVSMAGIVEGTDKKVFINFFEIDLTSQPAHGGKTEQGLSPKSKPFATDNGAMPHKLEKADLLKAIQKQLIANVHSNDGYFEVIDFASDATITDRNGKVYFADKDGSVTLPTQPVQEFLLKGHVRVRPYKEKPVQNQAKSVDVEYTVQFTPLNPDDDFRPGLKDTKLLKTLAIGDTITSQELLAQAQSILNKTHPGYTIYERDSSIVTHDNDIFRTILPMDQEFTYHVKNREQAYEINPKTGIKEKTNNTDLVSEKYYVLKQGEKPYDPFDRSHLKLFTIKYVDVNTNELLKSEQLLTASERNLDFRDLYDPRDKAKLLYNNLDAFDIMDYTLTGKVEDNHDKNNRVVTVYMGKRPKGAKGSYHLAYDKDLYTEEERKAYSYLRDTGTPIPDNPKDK
# [15] = loss of viability in HepG2 cells – cell-based, CellTiter-Glo, cherry-picked, cytotoxicity control for Shn3 inhibitor project, dose response (AID 624134); type: functional
# [16] = reduction of Shn3 3'UTR-driven luciferase in osteoblasts – cell-based, Clone20 osteoblasts, firefly luciferase, cherry-picked, dose response (AID 624132); type: functional;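 further: firefly luciferase luminescence from reporter carrying the Shn3 3'UTR in osteoblasts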
# [17] = system: Streptococcus sp. 'group A'; experiment: Streptococcus pyogenes SK(-)GAS viability under kanamycin – luminescence, BacTiterGlo, confirmation, counter-screen for streptokinase expression inhibitor project, dose response (AID 1900); type: functional, organism-based
# [18] = non-specific 3'UTR reporter inhibition in Clone20-Shn3RL – cell-based, Renilla luciferase, cherry-picked, counter-screen for Shn3 inhibitor project, dose response (AID 624133); type: functional
# [19] = molecular target: T4, Hexokinase HKDC1 (Homo sapiens, UniProt Q2TB90); experiment: analog inhibition of human HKDC1 activity – biochemical, set 2, SAR follow-up (AID 588355); type: functional
# T4 sequence (Q2TB90 whole entry): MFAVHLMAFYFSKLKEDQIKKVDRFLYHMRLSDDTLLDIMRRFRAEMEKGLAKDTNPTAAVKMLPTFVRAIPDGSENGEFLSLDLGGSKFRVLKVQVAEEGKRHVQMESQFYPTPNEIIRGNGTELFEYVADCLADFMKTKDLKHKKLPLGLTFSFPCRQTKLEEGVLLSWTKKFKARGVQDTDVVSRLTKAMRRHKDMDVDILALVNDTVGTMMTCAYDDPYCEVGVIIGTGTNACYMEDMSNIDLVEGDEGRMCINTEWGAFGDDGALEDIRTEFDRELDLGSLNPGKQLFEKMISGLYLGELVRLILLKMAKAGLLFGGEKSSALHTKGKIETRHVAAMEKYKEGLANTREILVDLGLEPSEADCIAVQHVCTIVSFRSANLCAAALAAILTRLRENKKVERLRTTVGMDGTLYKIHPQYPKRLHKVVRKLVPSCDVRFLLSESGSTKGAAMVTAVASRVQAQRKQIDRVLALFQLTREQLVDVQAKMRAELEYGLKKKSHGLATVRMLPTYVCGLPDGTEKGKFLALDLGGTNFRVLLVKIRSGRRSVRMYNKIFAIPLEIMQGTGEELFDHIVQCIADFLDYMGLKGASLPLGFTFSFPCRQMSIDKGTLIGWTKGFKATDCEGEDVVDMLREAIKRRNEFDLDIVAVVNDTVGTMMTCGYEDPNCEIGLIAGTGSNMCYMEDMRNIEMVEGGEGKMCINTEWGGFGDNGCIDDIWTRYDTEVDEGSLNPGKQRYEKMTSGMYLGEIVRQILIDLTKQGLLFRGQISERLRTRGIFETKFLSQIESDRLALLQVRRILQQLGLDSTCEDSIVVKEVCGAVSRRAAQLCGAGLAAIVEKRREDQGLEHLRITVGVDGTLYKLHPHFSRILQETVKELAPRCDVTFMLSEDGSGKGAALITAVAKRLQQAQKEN
# [20] = molecular target: T5, Hexokinase-1 (Homo sapiens, UniProt P19367); experiment: hexokinase 1 activity inhibitors, potency – biochemical, set 2, resazurin fluorescence coupled readout, selectivity assay for HKDC1 inhibitor project, SAR follow-up (AID 588356); type: functional
# T5 sequence (P19367 whole entry): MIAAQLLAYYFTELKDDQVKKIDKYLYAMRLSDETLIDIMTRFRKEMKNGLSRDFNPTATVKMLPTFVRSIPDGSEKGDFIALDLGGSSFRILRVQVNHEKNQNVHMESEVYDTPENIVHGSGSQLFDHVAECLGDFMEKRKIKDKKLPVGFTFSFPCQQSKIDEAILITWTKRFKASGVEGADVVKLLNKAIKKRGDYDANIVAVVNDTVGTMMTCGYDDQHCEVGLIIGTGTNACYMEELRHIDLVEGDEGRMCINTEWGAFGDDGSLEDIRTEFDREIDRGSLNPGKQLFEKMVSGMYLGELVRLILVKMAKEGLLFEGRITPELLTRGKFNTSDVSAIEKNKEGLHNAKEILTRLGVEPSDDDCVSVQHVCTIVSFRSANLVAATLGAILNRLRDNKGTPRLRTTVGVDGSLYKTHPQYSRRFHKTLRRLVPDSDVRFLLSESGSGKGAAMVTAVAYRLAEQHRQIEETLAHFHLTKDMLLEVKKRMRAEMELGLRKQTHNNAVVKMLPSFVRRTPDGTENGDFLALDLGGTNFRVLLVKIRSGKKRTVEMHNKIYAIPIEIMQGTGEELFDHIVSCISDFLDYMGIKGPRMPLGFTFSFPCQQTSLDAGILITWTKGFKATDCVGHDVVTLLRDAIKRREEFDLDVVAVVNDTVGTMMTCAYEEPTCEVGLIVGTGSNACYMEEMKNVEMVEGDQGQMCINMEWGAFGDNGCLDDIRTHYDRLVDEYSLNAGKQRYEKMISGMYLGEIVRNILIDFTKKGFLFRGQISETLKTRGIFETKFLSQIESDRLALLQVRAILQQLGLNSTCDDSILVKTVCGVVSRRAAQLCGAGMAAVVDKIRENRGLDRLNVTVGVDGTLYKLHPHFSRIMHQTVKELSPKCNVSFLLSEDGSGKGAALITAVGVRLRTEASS
# Type-1 angiotensin II receptor, sequence (P30556 whole entry): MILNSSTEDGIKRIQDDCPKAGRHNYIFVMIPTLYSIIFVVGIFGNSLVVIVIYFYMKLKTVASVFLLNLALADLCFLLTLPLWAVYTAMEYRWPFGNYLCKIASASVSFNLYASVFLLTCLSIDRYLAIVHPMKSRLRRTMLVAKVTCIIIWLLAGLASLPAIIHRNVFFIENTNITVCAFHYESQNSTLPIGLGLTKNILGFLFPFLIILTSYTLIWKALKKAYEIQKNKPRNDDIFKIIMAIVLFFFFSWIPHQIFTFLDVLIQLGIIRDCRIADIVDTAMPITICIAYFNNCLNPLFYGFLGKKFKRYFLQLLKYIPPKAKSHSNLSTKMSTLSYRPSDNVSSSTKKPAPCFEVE
# Beta-galactosidase, sequence (Q8VNN2 whole entry): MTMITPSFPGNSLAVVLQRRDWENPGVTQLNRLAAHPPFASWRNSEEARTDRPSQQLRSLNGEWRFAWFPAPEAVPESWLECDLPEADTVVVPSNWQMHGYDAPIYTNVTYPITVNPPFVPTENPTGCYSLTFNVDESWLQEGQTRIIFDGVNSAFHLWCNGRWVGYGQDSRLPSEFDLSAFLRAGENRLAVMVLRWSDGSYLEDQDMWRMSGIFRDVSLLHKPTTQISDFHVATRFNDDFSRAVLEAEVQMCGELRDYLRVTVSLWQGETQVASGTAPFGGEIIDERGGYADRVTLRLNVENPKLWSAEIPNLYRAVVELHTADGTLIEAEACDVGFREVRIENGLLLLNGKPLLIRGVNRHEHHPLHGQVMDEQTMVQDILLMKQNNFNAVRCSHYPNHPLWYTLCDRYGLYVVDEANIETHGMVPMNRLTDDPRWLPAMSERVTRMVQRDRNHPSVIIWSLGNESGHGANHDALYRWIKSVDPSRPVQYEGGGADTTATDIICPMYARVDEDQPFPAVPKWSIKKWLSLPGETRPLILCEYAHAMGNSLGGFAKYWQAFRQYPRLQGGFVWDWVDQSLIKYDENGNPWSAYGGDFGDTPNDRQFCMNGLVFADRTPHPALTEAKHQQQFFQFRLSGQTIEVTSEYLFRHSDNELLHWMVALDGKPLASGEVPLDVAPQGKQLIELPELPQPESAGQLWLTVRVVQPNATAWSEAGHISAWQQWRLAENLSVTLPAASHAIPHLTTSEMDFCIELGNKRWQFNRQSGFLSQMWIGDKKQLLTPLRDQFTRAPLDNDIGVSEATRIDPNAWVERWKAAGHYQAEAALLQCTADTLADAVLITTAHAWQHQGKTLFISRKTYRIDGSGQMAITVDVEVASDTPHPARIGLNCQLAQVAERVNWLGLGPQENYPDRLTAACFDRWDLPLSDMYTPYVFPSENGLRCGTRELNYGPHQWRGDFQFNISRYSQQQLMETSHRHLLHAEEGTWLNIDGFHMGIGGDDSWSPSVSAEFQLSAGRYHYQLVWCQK
# ATP-binding cassette sub-family B member 6, sequence (Q9NP58 whole entry): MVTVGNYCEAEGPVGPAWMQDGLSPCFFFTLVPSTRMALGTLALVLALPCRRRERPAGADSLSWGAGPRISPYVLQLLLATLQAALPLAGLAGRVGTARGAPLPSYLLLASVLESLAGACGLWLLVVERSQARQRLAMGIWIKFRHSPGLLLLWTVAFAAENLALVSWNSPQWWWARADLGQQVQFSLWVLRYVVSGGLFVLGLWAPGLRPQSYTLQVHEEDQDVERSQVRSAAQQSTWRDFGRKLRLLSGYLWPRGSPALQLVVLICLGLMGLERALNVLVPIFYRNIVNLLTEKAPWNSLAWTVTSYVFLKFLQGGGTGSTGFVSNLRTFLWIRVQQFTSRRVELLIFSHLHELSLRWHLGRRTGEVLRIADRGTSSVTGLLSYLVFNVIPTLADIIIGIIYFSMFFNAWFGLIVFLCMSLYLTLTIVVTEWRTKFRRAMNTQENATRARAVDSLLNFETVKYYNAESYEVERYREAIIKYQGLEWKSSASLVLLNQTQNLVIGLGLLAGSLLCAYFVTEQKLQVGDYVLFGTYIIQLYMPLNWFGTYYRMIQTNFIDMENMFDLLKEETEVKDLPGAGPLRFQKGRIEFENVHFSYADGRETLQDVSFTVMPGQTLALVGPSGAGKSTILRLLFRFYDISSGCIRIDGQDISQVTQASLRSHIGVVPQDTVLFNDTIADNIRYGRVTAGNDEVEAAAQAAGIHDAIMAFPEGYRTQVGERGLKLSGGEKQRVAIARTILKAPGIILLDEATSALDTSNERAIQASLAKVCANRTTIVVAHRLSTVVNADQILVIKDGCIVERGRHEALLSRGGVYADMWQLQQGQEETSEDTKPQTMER
smiles,measurement,setting,value
O=C(O)c1cccc(NC(=S)NC(=O)c2cncc(Br)c2)c1,IC50,[1],> 40 µM (not active)
same,EC50,[2],> 40 µM (inactive)
O=C(NCc1cccs1)c1nc(O)c2nnn(Cc3ccccc3Cl)c2n1,EC50,[3],> 20 µM (not active)
same,CC50,[4],14.6 µM (active)
same,EC50,[5],> 50 µM (not active)
same,CC50,[6],7 µM (active)
same,EC50,[7],> 20 µM (not active)
Cc1ccc(NC(=O)c2nc(S(=O)(=O)Cc3ccccc3C)ncc2Cl)cc1C,IC50,[8],5.02 µM (active)
same,EC50,[9],22.2 µM (inconclusive)
same,AC50,[10],> 380 µM (inconclusive)
same,EC50,[11],1.31 µM (active)
same,AC50,[12],2.01 µM (active)
same,EC50,[13],20.5 µM (active)
same,EC50,[14],1.32 µM (active)
same,AC50,[15],30.8 µM (active)
same,AC50,[16],0.486 µM (active)
same,EC50,[17],9.97 µM (active)
same,AC50,[18],8.07 µM (active)
COc1cccc(N2CC(C)Cn3c2nc2c3c(=O)n(CCN3CCOCC3)c(=O)n2C)c1 (centres undefined),IC50,[1],> 40 µM (not active)
same,EC50,[2],> 40 µM (inactive)
COc1cc2c(cc1OC)-c1cc(Nc3cccc4ccccc34)nc(=O)n1CC2,IC50,[19],> 80 µM (inactive)
same,IC50,[20],> 80 µM (inactive)
O=c1c2ccc(F)cc2nc(/C=C/c2cccnc2)n1Cc1ccccc1,IC50,[19],> 80 µM (inactive)
same,IC50,[20],> 80 µM (inactive)
